Positions of bridges follow the written chain, without caps; N, C: chain ends. Residues, ends and D or L forms follow the SMILES beside them.
Assays:
[1] = test system: HCMV strain AD169; experiment: HCMV plaque reduction assay in MRC-5 cells; conditions: HCMV AD169 in MRC-5 cells; peptide 10 micrograms per ml; 7-10 days
[2] = test system: MRC-5 cells; conditions: human, 6 days
Procedure: (§2) For cytotxicity testing, MRC-5 cells were seeded at 2,500 cells/well in 96 well plates using growth medium. […] The following day, peptide was added and tested in duplicates. After a 6 days incubation period, cell viability was measured using CellTiter 96 Solution (Promega). Plates were incubated for additional 4 hours at 37° C. Adhesive plate sealers were used in place of lids, the sealed plates were inverted several times to mix the soluble formazan product and the plate was read spectrophotometrically at 490/560 nm with a Molecular Devices Vmax plate reader.

[3] = test system: HIV-1IIIB; experiment: HIV-1 antiviral assay (CPE reduction, MTS) in CEM-SS cells; assay type: cell-based; conditions: peptide 10 micrograms per ml, 6 days post-infection
[4] = test system: macrophages differentiated from human PBMC; experiment: TNF alpha production assay (LPS-stimulated macrophages, ELISA); assay type: cell-based; conditions: peptide 10 micrograms per ml, 30 min before lipopolysaccharide 200 ng/ml, overnight
Procedure: Human Peripheral Blood Mononuclear Cells (PBMC) were obtained from normal human donors. The macrophages were prepared by adherence of PBMC to the plastic wells of the plates. After 8 days in culture in the presence of recombinant human macrophage-colony stimulating factor at 2 ng/ml, differentiated macrophages were preincubated with test peptide—10 micrograms per ml—for 30 min, followed by in-well stimulation by the addition of lipopolysaccharide at a final concentration of 200 ng/ml. Not stimulated macrophages served as negative background control. After overnight incubation, supernatants from the control and LPS-stimulated cultures were harvested and assayed for TNF alpha production employing a TNF alpha specific ELISA.

[5] = test system: hepatitis B virus (HBV) ayw strain; experiment: HBV replication assay in HepG2-2.2.15 cells (TaqMan PCR of secreted HBV DNA); assay type: cell-based; conditions: peptide 10 micrograms per ml, six days, HBV DNA in supernatant
[6] = Cytotoxicity in HepG2-2.2.15 cells (dye uptake cell viability); conditions: human
[7] = in vitro; conditions: human, CEM-SS cells
[8] = test system: spleen cells of Ovalbumin-immunized Balb/c mice; experiment: Th1/Th2 cytokine profiling assay (Ovalbumin-restimulated spleen cells, CBA kit); assay type: cell-based, mouse; conditions: peptide 10 micrograms per ml; Ovalbumin restimulation; 72 hours
Procedure: The Balb/c mice (originated in 1923, it is a popular strain and is used in many different research disciplines. […] On day 50, spleens of the mice were harvested (3 weeks after last boost with Ovalbumin). Cells were cultured (2×10^5/well in triplicate) and incubated with culture medium or test peptide—10 micrograms per ml—for 30 min. Thereafter, additional Ovalbumin was added to the cells at 10 micrograms/ml for in vitro restimulation of the cells. 72 hours later, cell supernatants were harvested and assayed using the Becton Dickinson Mouse Th1/Th2 Cytokine CBA Kit. This kit can be used to measure Interleukin-2 (IL-2), Interleukin-4 (IL-4), Interleukin-5 (IL-5), Interferon-γ (IFN-γ), and Tumor Necrosis Factor-α (TNF-α) protein levels in a single sample. The kit performance has been optimized for analysis of physiologically relevant concentrations (pg/ml levels) of specific cytokine proteins in tissue culture supernatants and serum samples.

[9] = test system: RAW 264.7 cells; experiment: Phagocytosis assay (Fluorescein-labeled Escherichia coli, flow cytometry); assay type: cell-based, mouse; conditions: peptide 10 micrograms per ml, 30 min before Fluorescein-labeled E. coli
Procedure: Cells were incubated in 12×75 mm tubes at 37° C. with test peptide—10 micrograms per ml—for 30 min prior to adding Fluorescein-labeled Escherichia coli bacteria as the agent to be ingested. […] The samples were then analyzed by flow cytometry to determine the amount of phagocytosis as a function of brightness (the greater the phagocytic activity, the more fluorescence in the macrophage population). Data are reported as % positive and the mean fluorescence intensity (MFI) of positively stained cells.

[10] = test system: A549 cells; experiment: Propidium iodide cell cycle assay; assay type: cell-based, human; conditions: peptide 10 micrograms per ml, 24 hours, Propidium iodide FACS
Procedure: Human A549 cells (carcinomic human alveolar basal epithelial cells) were utilized in the experiments employing the Propidium iodide cell cycle assay. The eukaryotic cell cycle is a series of events that take place in a cell leading to its replication. Propidium iodide is an intercalating agent and a fluorescent molecule that can be used to stain DNA. Cells were incubated for 24 hours with test peptide—10 micrograms per ml—or left untreated. […] The cells were pipetted into 2.5 ml absolute EtOH (final concentration approx. 70%) and incubated on ice for 15 min. Thereafter, cells were pelleted at 1500 rpm for 5 min and resuspended in Propidium iodide solution in PBS. After incubation for 40 min at 37° C., cells were analyzed in the FACS.

[11] = test system: A549 cells; experiment: Apoptosis induction assay (Annexin-5); assay type: cell-based, human; conditions: apoptosis in A549 cells, peptide 10 micrograms per ml, 24 hours
Source text: Human A549 cells (carcinomic human alveolar basal epithelial cells) were utilized in the experiments employing the Annexin-5 apoptosis assay. Annexin-5 is a member of a highly conserved protein family that binds acidic phospholipids in a calcium-dependent manner. […] Phosphatidylserine is translocated from the inner side of the plasma membrane to the outer layer when cells undergo death by apoptosis or cell necrosis and serves as a signal by which cell destined for death are recognized by phagocytes. Test peptide—10 micrograms per ml—were exposed for 24 hours to the A549 cells before they were analyzed for signs of apoptosis.

[12] = test system: Human Peripheral Blood Mononuclear Cells (PBMC); experiment: T cell proliferation assay (PHA, 3H-thymidine); assay type: cell-based; conditions: peptide 10 micrograms per ml, 3H-thymidine incorporation
Procedure: (§1) Human Peripheral Blood Mononuclear Cells (PBMC) were obtained from normal human donors. The T cell proliferation was induced by stimulation of the cells with the T cell mitogen phytohemagglutinin (PHA), either in the absence (positive proliferation control), or in the presence of test peptide—10 micrograms per ml—to examine their effects on the T cell proliferating response. 10^5/well PBMC were plated in 96-well microtiter plates and assayed in duplicate with the peptide. Cell cultures were incubated at 37° C. for 3 days in a 5% CO2 incubator and were thereafter pulsed with 1 microCi/well ^3H-thymidine for additional 12 hours of culture. At the end of incubation time, the plates were harvested and the cells counted by liquid scintillation for the incorporation of ^3H-thymidine as a measure of T cell proliferation.

[13] = test system: HUVEC; experiment: Endothelial tube formation assay; assay type: cell-based, human; conditions: peptide 10 micrograms per ml, 20 hours
Procedure: The endothelial tube formation assay is based on the ability of endothelial cells to form three-dimensional capillary-like tubular structures when cultured on a gel of basement membrane extract. The endothelial tube formation assay represents a powerful model for studying inhibition and induction of angiogenesis. Pre-labeled HUVEC with Calcein AM were seeded in a 96-well culture plate coated with extracellular metrix (Chemicon international Cat. ECM625) and treated with test peptide—10 micrograms per ml—in full growth medium. Positive control wes vehicle only. The endothelial cells were allowed to form tubes foe 20 hours and were then examined under an inverted fluorescent microscope. Duplicate wells for each treatment were photographed and quantitatively analyzed for an average tubule length using image analysis software ImageProPlus. Raw data were expressed as average tubule lengths in pixels±standard deviation. Statistic p values were computed using the Student's t-test.

[14] = test system: Primary Human endothelial cells (HUVEC); experiment: Endothelial cell migration assay; assay type: cell-based; conditions: peptide 10 micrograms per ml, 22 hours
Procedure: Endothelial cell migration is a prerequisite for the process of neo-vascularization or angiogenesis which is crucial for on-site recruitment of blood vessel formation. […] Thereafter, designated concentration of test peptide—10 micrograms per ml—was added in duplicate wells. The endothelia were allowed to migrate for 22 hours at 37° C., then, migrated cells were fixed and stained with Hoechst 33342 dye. Images of 3 fields per insert were taken and the number of migrated cells per field were quantified using the ImageProPlus software. Data were analyzed for the average number of the migrated cells and standard deviation of six data points for each treatment condition. Active test peptide against HUVEC migration was determined based on 50% inhibition of migrated cells as compared with the control. Statistic p values were computed using the Student's t-test.

[15] = test system: Human Peripheral Blood Mononuclear Cells (PBMC); experiment: B cell proliferation assay (SAC plus Interleukin-2, 3H-thymidine); assay type: cell-based; conditions: peptide 10 micrograms per ml, 3H-thymidine incorporation
Procedure: as §1, with “The B” for “The T”, “the B” for “the T”, “mitogen Staphylococcus aureus Cowans I (SAC) plus Interleukin-2,” for “mitogen phytohemagglutinin (PHA),”, “cell” for “cell proliferating”, “of B” for “of T”

[16] = test system: A549 cells; experiment: Apoptosis prevention assay (C2 ceramide, Annexin-5); assay type: cell-based, human; conditions: A549 cells pretreated 30 min with peptide 10 micrograms per ml, then C2 ceramide
Source text: Human A549 cells (carcinomic human alveolar basal epithelial cells) were utilized in the experiments employing the Annexin-5 apoptosis assay. Annexin-5 is a member of a highly conserved protein family that binds acidic phospholipids in a calcium-dependent manner. […] Phosphatidylserine is translocated from the inner side of the plasma membrane to the outer layer when cells undergo death by apoptosis or cell necrosis and serves as a signal by which cell destined for death are recognized by phagocytes. A549 cells were pretreated for 30 min with test peptide—10 micrograms per ml—followed by the exposure to C2 ceramide. Ceramide mediates cell apoptosis through the activation of the mitogen activating protein kinase (MAPK) and the stress activated kinase (JNK/SAPK). C2 ceramide is a synthetic, membrane soluble analog of ceramide.

[17] = in vitro; conditions: human, MRC-5 cells (embryonal lung fibroblasts)
Procedure: as §2

[18] = test system: HepG2-2.2.15 cells; experiment: Cytotoxicity in HepG2-2.2.15 cells (dye uptake cell viability); conditions: HepG2-2.2.15 cells; peptide 10 micrograms per ml; dye uptake assay

For `Nc1nc(O)c2ncn(COC(CO)CO)c2n1` [Ganciclovir, reference compound], the “% plaque reduction” value [1] was 100% and the “% Cell viability” value [2] was 100%.

In the case of `CC(C)(C)NC(=O)[C@@H]1CN(Cc2cccnc2)CCN1C[C@@H](O)C[C@@H](Cc1ccccc1)C(=O)N[C@H]1c2ccccc2C[C@H]1O` [Indinavir, indinavir], the “% CPE reduction in HIV-1 infected CEM-SS cells” value (“% CPE reduction” below) [3] is reported as 100%.

For `Cc1cn([C@H]2C[C@H](N=[N+]=[N-])[C@@H](CO)O2)c(=O)[nH]c1=O` [AZT, zidovudine], the “% CPE reduction” value [3] was 99%.

With `CC[C@H](C)[C@@H]1NC(=O)[C@H](CCC(=O)O)NC(=O)[C@@H](NC(=O)[C@@H](NC(=O)CNC(=O)[C@@H]2CCCN2)[C@@H](C)O)CSSC[C@@H]2NC(=O)[C@H](C)NC(=O)[C@H](C)NC(=O)[C@H](Cc3ccc(O)cc3)NC(=O)[C@H](C)NC(=O)[C@H](CSSC[C@@H](C(=O)O)NC(=O)CNC(=O)[C@H]([C@@H](C)O)NC2=O)NC1=O` [Guanylin, Pro-Gly-Thr-Cys-Glu-Ile-Cys-Ala-Tyr-Ala-Ala-Cys-Thr-Gly-Cys-OH] (H-PGTCEICAYAACTGC-OH; disulfide 4-12, 7-15 (inferred); N-terminus assumed) the “% of LPS induction” value [4] was 96.6%, the “% inhibition of HBV replication in HEP G2 cells” value [5] was 21.7% and the viability at 144 h, 10 micrograms per ml [6] was 91.2%. For the same compound, the viability at 10 micrograms per ml [7] was 100%, the “IFNγ spleen cells; TH1 response (% of control)” value [8] was 62.0 % of control and the “IL-2 spleen cells (% of control)” value [8] was 135.5 % of control. The “IL-4 spleen cells; TH2 response (% of control)” value [8] was 143.8 % of control, the “IL-5 spleen cells; TH2 response (% of control)” value [8] was 82.6 % of control and the “TNF-a spleen cells; TH1 response (% of control)” value [8] was 108.5 % of control. The “% CPE reduction” value [3] was 13.2%, the “% of control phagocytosis” value [9] was 105.9% and the “Cell cycle analysis G0/G1” value [10] was 58.7. For the same compound, the “Cell cycle analysis G2/M” value [10] was 9.8, the “Cell cycle analysis S” value [10] was 31.5 and the “% of induction” value [11] was 1.5%. For the same compound, the “% of PHA induced control” value [12] was 93.7%, the “% inhibition of tube formation” value [13] was 10.0% and the “% plaque reduction” value [1] was 0.0%. The “% inhibition of migration” value [14] was 24.0%, the “% of SAC/IL2 induced control” value [15] was 97.0% and the “% prevention of ceramide induced apoptosis” value [16] was 0.0%. For the same compound, the viability at 144 h [17] was 100%.

With `Nc1ccn([C@@H]2CS[C@H](CO)O2)c(=O)n1` [3TC, Lamivudine, reference compound] the “% Cell viability” value [18] was 95.8%.
